Assay results published in US20180244629A1, “Compounds And Compositions For The Treatment Of Cancer” (The Broad Institute, Inc., priority 2013, published 2018).
Like-named read-outs stand apart in the source and are kept apart here. Blank lines part the entries; values can stand above or below the compound they belong to.

Legend:
[1] = tested on: HeLa cells; experiment: HeLa Cytotoxicity Assay (Cell Titer Glo viability); format: cell-based; settings: Homo sapiens, HeLa
Experimental: HeLa Cytotoxicity Assay Protocol: Day 0: HeLa cells (ATCC, HeLa CCL-2) are grown to 95% confluence in DMEM, 10% FBS/Pen/Strep/L-Glutamine. Day 1: Plate cells (1000 per well) in 40 μl culturing media using Corning 384-well plates (3570), incubate in standard TC conditions (5% CO2, 95% humidity, 37 degrees C.) for 24 hours. Day 2: Dilute each concentration of a half-log serial dilution of compound (1 mM-100 nM) 1:200 in culturing media and add 10 μl (50 μl total volume) of that dilution to designated wells (8 replicates per concentration). The final dilution will be 1000×(1 μM-100 pM). Day 4: Remove plate from incubator to cool for 20 minutes to room temperature. Add 40 μl of a 25% Promega Cell Titer Glo solution (diluted 1:3 with room temperature PBS) with Thermo combi or multichannel and incubate for 10 minutes. Read on Perkin-Elmer EnVision with US LUM settings for 0.1 second per well.
(§1) Compounds as shown were tested against various cells lines in vitro according to the methods described herein. Cells are plated in 384-well format in a total volume of 40 μl. Indicated compound concentrations were added 24 hrs after plating the cells. After 48 hrs cell viability was determined using Cell Titer Glo® Luminescent Cell Viability Assay.
as §1, with “Known PDE3 inhibitors” for “Compounds”, “shown below” for “shown”

[2] = tested on: A549 cells; experiment: A549 Cytotoxicity Assay (Cell Titer Glo viability); format: cell-based; settings: Homo sapiens, A549
Experimental: (§2) A549 Cytotoxicity Assay Protocol. Day 0: A549 cells (ATCC, A549 CCL-185) are grown to 95% confluence in RPMI, 10% FBS/Pen/Strep/L-Glutamine. Day 1: Plate cells (1000 per well) in 40 μl culturing media using Corning 384-well plates (3570), incubate in standard TC conditions (5% CO2, 95% humidity, 37° C.) for 24 h. Day 2: Dilute each concentration of a half-log serial dilution of compound (1 mM-100 nM) 1:200 in culturing media and add […] (50 μl total volume) of that dilution to designated wells (8 replicates per concentration). The final dilution will be 1000×([…]). Day 4: Remove plate from incubator to cool for 20 minutes to room temperature. Add 40 μl of a 25% Promega Cell Titer Glo solution (diluted 1:3 with room temperature PBS) with Thermo combi or multichannel and incubate for 10 min. Read on Perkin-Elmer EnVision with US LUM settings for 0.1 second per well.
A549 Assay Protocol. Day 0: A549 cells (ATCC) are grown in a Triple flask (NUNC) to ˜95% confluence (TrypLE Phenol Red free) and resuspended for dispensing at 25,000 cells/mL of DMEM, 10% FBS/Pen/Strep/L-Glutamine (using the TAP Compact SelecT automated cell culture system). Day 1: Plate cells at 1000 per well in 40 uL media (DMEM/10% FBS/Pen/Strep/L-Glutamine) using Corning 8867BC 384 well plates; incubate in standard TC conditions (5% CO2; 95% humidity, 37° C.) for 24 hours (Compact SelecT). Day 2: Add 100 nL compound per well at dose into 40 uL assay volume using a pin tool (CyBi Well). Pin 100 nL cytotoxic compounds, mitoxantrone (CID 4212) to positive control wells to a final concentration of 10 μM (100 nL 4 mM DMSO stock). Incubate for […] at 37° C. in Liconic incubator, 95% humidity 5% CO2. Day 4: Remove plate from incubator, cool for 15 minutes to room temperature; add 20 μL 50% Promega CellTiterGlo (diluted 1:1 with PBS, pH 7.4) with Thermo Combi. Incubate at room temperature for 5 minutes. Read plates on Perkin-Elmer EnVision with standard luminescence settings for 0.1 sec per well.
as §1
as §1, with “Known PDE3 inhibitors” for “Compounds”, “shown below” for “shown”

[3] = tested on: PDE3; settings: reference value; read-out: PDE3 activity (ref); cited from earlier work
[4] = tested on: H2122 cells; experiment: H2122 Assay (Cell Titer Glo viability); format: cell-based; settings: Homo sapiens
Experimental: Selective toxicity in cell line panel. H2122 Assay Protocol Day 0: H2122 cells (ATCC, H2122 CCL-5985) are grown to 95% confluence in RPMI, 10% FBS/Pen/Strep/L-Glutamine. Day 1: Plate cells (750 per well) in 40 μl culturing media using Corning 384-well plates (3570), incubate in standard TC conditions (5% CO2, 95% humidity, 37 degrees C.) for 24 h. Day 2: Dilute each concentration of a half-log serial dilution of compound (1 mM-100 nM) 1:200 in culturing media and add 10 μl (50 μl total volume) of that dilution to designated wells (8 replicates per concentration). The final dilution will be 1000×([…]). Day 4: Remove plate from incubator to cool for 20 minutes to room temperature. Add 40 μl of a 25% Promega Cell Titer Glo solution (diluted 1:3 with room temperature PBS) with Thermo combi or multichannel and incubate for 10 minutes. Read on Perkin-Elmer EnVision with US LUM settings for 0.1 second per well.
as §1

[5] = tested on: COLO741 cells; experiment: COLO741 Assay (Cell Titer Glo viability); format: cell-based; settings: Homo sapiens
Experimental: as §2, with “C0L0741” for “A549 Cytotoxicity”, “C0L0741” for “A549”, “(ECACC, C0L0741 93052621)” for “(ATCC, A549 CCL-185)”, “(1500” for “(1000”, “minutes.” for “min.”
as §1

[6] = tested on: H1563; experiment: H1563 cell line viability (Cell Titer Glo); format: cell-based; settings: Homo sapiens, NCI-H1563; n = 2; read-out: Potency (EC50) H1563
Experimental: as §1

[7] = known PDE3 inhibitors, Mean (n = 3), read-out: Potency (EC50 nM) HeLa
[8] = known PDE3 inhibitors, Mean (n = 3), read-out: Potency (EC50 nM) A549
[9] = 48 h, Cell Titer Glo, read-out: EC50 HeLa
[10] = 48 hrs, Cell Titer Glo, read-out: EC50 A549
[11] = NCI-H2122, 48 h, 48 hrs, Cell Titer Glo, read-out: EC50 H2122
[12] = Mean ± SD (n = 3), read-out: Potency (EC50 nM) HeLa
[13] = Mean ± SD (n = 3), read-out: Potency (EC50 nM) A549
[14] = NCI-H2122, Example 18, Mean ± SD (n = 3), read-out: Potency (EC50 nM) H2122
[15] = COLO-741, Example 18, Mean ± SD (n = 3), read-out: Potency (EC50 nM) COLO741
[16] = Example 18, Mean ± SD (n = 3), read-out: Potency (EC50 nM) HeLa
[17] = n = 2, read-out: Potency (EC50) A549

Structure (SMILES): CN(C(=O)CCCOc1ccc2[nH]c(=O)ccc2c1)C1CCCCC1 [Cllostamide, reference compound]
- EC50 [1, 7]: > 10000 nM
- EC50 [2, 8]: > 10000 nM
- IC50 [3]: 27 nM

Structure (SMILES): O=C1CCC(c2ccc(-n3ccnc3)cc2)=NN1 [Imazodan, reference compound]
- EC50 [1, 7]: 720 nM
- EC50 [2, 8]: > 10000 nM
- IC50 [3]: 1300 nM

Structure (SMILES): C[C@@H]1CC(=O)NN=C1c1ccc(NN=C(C#N)C#N)cc1 [Levosimendan, reference compound]
- EC50 [1, 7]: > 10000 nM
- EC50 [2, 8]: > 10000 nM
- IC50 [3]: 2.4 nM

Structure (SMILES): CCN(CC)c1ccc(C2=NNC(=O)CC2C)cc1[N+](=O)[O-] (centres unmarked) [drawing 137]
- EC50 [1, 9]: 5.5 to 8.7 nM
- EC50 [2, 10]: > 10000 nM
- EC50 [4, 11]: 10.3 to 15.6 nM

Structure (SMILES): CCN1N=C(c2ccc(N(CC)CC)cc2)[C@H](C)CC1=O [drawing 140]
- EC50 [1, 9]: > 10000 nM
- EC50 [2, 10]: > 10000 nM
- EC50 [4, 11]: > 1000 nM
- EC50 ([5]; COLO-741, 48 h, 48 hrs, Cell Titer Glo, read-out: EC50 COLO741): > 1000 nM

Structure (SMILES): C[C@@H]1CC(=O)NN=C1c1ccc(C2CCCCC2)cc1 [drawing 196]
- EC50 [1, 12]: 7.7 ± 1.3 nM
- EC50 [2, 13]: > 10000 nM

Structure (SMILES): C[C@@H]1CC(=O)NN=C1c1ccc(-c2cncnc2)cc1 [drawing 197]
- EC50 [1, 12]: 13 ± 2 nM
- EC50 [2, 13]: > 10000 nM

Structure (SMILES): Cc1cc(=O)[nH]nc1-c1ccc(N)cc1 [drawing 199]
- EC50 [1, 12]: > 1000 nM
- EC50 [2, 13]: > 10000 nM

Structure (SMILES): CCN(CC)c1ccc(-c2n[nH]c(=O)cc2C)cc1 [drawing 200]
- EC50 [1, 12]: > 1000 nM
- EC50 [2, 13]: > 10000 nM

Structure (SMILES): CCN(CC)c1ccc(C2=NNC(=O)CC2C)cc1[N+](=O)[O-] (centres unmarked) [drawing 215]
- EC50 [4, 14]: 13.7 ± 2.8 nM
- EC50 [5, 15]: 12 ± 1.3 nM

Structure (SMILES): C[C@@H]1CC(=O)NN=C1c1ccc(C2CCCCC2)cc1 [drawing 216]
- EC50 [1, 16]: 7.7 ± 1.3 nM
- EC50 [4, 14]: 29.6 ± 8.7 nM
- EC50 [5, 15]: 11.4 ± 0.3 nM

Second part, led by results:

- EC50 [4, 14]: 3.2 ± 1.1 nM
- EC50 [5, 15]: 3.1 ± 0.6 nM
Structure (SMILES): C[C@@H]1CC(=O)NN=C1c1ccc(N2CCOCC2)c(F)c1 [drawing 217]
- EC50 [1, 16]: 1.6 ± 0.2 nM

- EC50 [4, 14]: 31.4 ± 10.8 nM
- EC50 [5, 15]: 20.2 ± 4.8 nM
Structure (SMILES): C[C@@H]1CC(=O)NN=C1c1ccc(N2CCOCC2)cc1 [drawing 218]
- EC50 [1, 16]: 13.1 ± 1.9 nM

- EC50 [4, 14]: 37.8 ± 12.3 nM
- EC50 [5, 15]: 19.8 ± 1.8 nM
Structure (SMILES): C[C@@H]1CC(=O)NN=C1c1ccc(-c2cncnc2)cc1 [drawing 219]
- EC50 [1, 16]: 12.7 ± 2.2 nM

- EC50 [4, 14]: 47.7 ± 14.1 nM
- EC50 [5, 15]: 33.2 ± 14.1 nM
Structure (SMILES): C[C@@H]1CC(=O)NN=C1c1ccc(F)c(F)c1 [drawing 220]
- EC50 [1, 16]: 22.3 ± 4.5 nM

- EC50 [4, 14]: 12.3 ± 3.4 nM
- EC50 [5, 15]: 7.8 ± 0.3 nM
Structure (SMILES): CC(=O)Nc1ccc(C2=NNC(=O)C[C@H]2C)cc1[N+](=O)[O-] [drawing 221]
- EC50 [1, 16]: 4.9 ± 1.1 nM

- EC50 ([4]; NCI-H2122, n = 2, read-out: Potency (EC50) H2122): 12 nM
- EC50 [6]: 12 nM
Structure (SMILES): CCN(CC)c1ccc(C2=NNC(=O)CC2C)cc1[N+](=O)[O-] (centres unmarked) [drawing 226]
- EC50 ([1]; n = 2, read-out: Potency (EC50) HeLa): 4 nM
- EC50 [2, 17]: > 10000 nM

- EC50 [6]: > 10000 nM
Structure (SMILES): CN/C(=N\c1ccc(C2=NNC(=O)CC2C)cc1)NC#N (centres unmarked) [drawing 237]
- EC50 [2, 17]: > 10000 nM
